We go through 3 compounds from patent US20250339402A1, “EFFECTIVE MEANS TO MODULATE NMDA RECEPTOR-MEDIATED TOXICITY” (FUNDAMENTAL PHARMA GMBH, priority 2022, published 2025).

“Also recorded” adds a separate entry of the source. Structures can show the parent of a compound that is named as a salt.

Assay [1] has as its system human iPSC-derived prefrontal cortex organoids. In words: Cell survival after glutamate/NMDA treatment in prefrontal cortex organoids (RealTime-Glo MT Cell Viability Assay). The format is cell-based. The following applies: pre-incubation 30 min, 200 μM NMDA for 24 h; compared with P401; FIG. 4; hydrochloride. On the procedure:
Prefrontal cortex organoids were generated based on published literature (Bauersachs H G et al, Neuroscience, 2022; 484:83-97). Around week 20, organoids were pre-incubated with compound 120 for 30 min before challenged with 200 μM NMDA for 24 h, where 80% of neuron will undergo necrosis. The cell death was monitored and analyzed with a RealTime-Glo™ MT Cell Viability Assay (Promega, G9711) following the manufacture's instruction using a plate reader (luciferase). The cell survival (%) can be calculated by the following equation: […]
Where Ft is the luciferase intensity at each time point and Fbasal is the basal luciferase intensity before glutamate/NMDA insult to diminish the difference between different organoids. The Control and FControlBasal stands for the same in untreated organoids, therefore the cell death can be calculated by normalization to the healthy organoids.

The test system of assay [2] is Primary mouse hippocampal neurons. Description: Excitotoxic (glutamate/NMDA-induced) cell death in primary neuronal cultures, protection index. The class given is cell-based. The note with it: for Biological Activity Rating: protection index from area above curve over 24 h glutamate/NMDA insult, compounds added 30 min before, Group A also at lower concentrations. Here is the method: (§1) Primary mouse hippocampal neurons were prepared as previously described (Bading & Greenberg, Science, 1991; 253: 912-914; Zhang et al, Neuron, 2007, 53: 549-562) and maintained in Neurobasal-A medium supplemented with 2% B27, 5 mM L-Glutamax, and 0.5% Penicillin/Streptomycin until challenged with NMDA on days in vitro (DIV) 10. Glutamate-induced cell death was analyzed in a real-time manner by monitoring nuclear localized mCherry with IncuCyte® S3 Live-Cell Analysis System (Sartorius AG, Germany). Primary neurons plated in 24 well plates were infected with rAAV-hSyn-mCherry on DIV3 and challenged with 1 μM or 20 μM glutamate on DIV10. All compounds were added to the culture 30 min prior to glutamate/NMDA insult. Images were acquired following the glutamate application for 24 h with a 2 h interval, where 9-16 images were obtained via a 20×objective for each condition at each time point. Cell deaths were quantified by analyzing the existence of nuclear localized mCheery via the Basic Analyzer with Incucyte® 2021 software, size and average intensity were used as exclusion criteria.
In order to evaluate the protective effects of various compounds, a quantification method was developed to determine each compound's protection index. The protection index (from 0.0 to 10.0) was calculated by the area above the curve (AAC) during a 24 h excitotoxic stimuli, where the cell survival was normalized to the 0 h (FIG. 2), following the equation: […]
Where AAC represents for each compound, AACbasal represents for the basal condition without excitotoxic insult, AACVeh represents for the vehicle control with excitotoxic insult. Based on the equation, vehicle (DMSO) has a protection index at 0.0 and compound P401 of WO 2020/079244 has a protection index at 6.0 (at 10 μM).
The inventors also performed experiments with Group A compounds at lower concentration in a 3-fold dilution matter ([…]: 3.0, 1.0, 0.3, 0.1, 0.03) and were able to achieve a similar protection effect as 10 μM compound P401, but at a lower concentration.

Another assay addresses T1, NMDAR/TRPM4 complex (Homo sapiens, UniProt Q8TD43).
T1 construct: endogenous in cells; host or cells: human iPSC-derived brain organoids, week 25
In words: Co-immunoprecipitation of TRPM4 and NMDA receptor subunits, Western blot. The format is cell-based. The following applies: 10 μM for 30 min; lysates of human iPSC-derived brain organoids precipitated with anti-TRPM4; FIG. 5; hydrochloride. Here is the method:
All procedures for co-immunoprecipitation were carried out at 4° C. Human iPSC derived brain organoids were cultured in Falcon@6 well TC-treated cell culture plate to week 25 as described (Bauersachs H G et al, Neuroscience, 2022; 484:83-97), which allows an abundant expression of both GluN2A/GluN2B/TRPM4 expression. 6 brain organoids were incubated with 10 μM compound 120 for 30 min, washed twice with ice-cold PBS and then lysed in 500 μL immunoprecipitation buffer (10 mM Tris, pH 8.0, 150 mM NaCl, 1 mM EDTA, 1% NP-40, 10% glycerol with EDTA-free Protease Inhibitor Cocktail (Roche). The lysate was incubated while rotating for 60 min, centrifuged for 12 min at 1,200×g to remove cell debris and nuclei. 10% of the supernatant was boiled with Laemmli buffer for input samples analysis. The rest of the supernatant was mixed with anti-TRPM4 antibody (1:200) overnight. The mixture was then incubated with Pierce™ Protein A Magnetic Beads for another 12 h to pull down antibody complex, and washed with immunoprecipitation buffer to remove any unspecific bindings. After the last washing, the supernatant was carefully removed, and the precipitate pellets were boiled in Laemmli buffer. Both input and precipitate samples were stored at −20° C. until analysed with western blots. […]
A general note: In western blotting, separated proteins are transferred to a membrane and probed.

The next assay has as its system Primary neurons. Description: Reactive oxygen species (H2O2) induced neuronal death in primary neurons. The following applies: 300 μM H2O2 on DIV10, compounds added 30 min before, FIG. 3. The class given is cell-based, mouse. Here is the method: as §1, with “Images were acquired following the glutamate application for 24 h with a 2 h interval, where 9-16 images were obtained via a 20×objective for each condition at each time point.” left out
Primary neurons plated in 24 well plates were infected with rAAV-hSyn-mCherry on DIV3 and challenged with 300 μM H2O2 on DIV10. […] Cell deaths were quantified by analyzing the existence of nuclear localized mCherry via the Basic Analyzer with Incucyte® 2021 software, size and average intensity were used as exclusion criteria.

T1 sequence (Q8TD43 whole entry, one chain of several): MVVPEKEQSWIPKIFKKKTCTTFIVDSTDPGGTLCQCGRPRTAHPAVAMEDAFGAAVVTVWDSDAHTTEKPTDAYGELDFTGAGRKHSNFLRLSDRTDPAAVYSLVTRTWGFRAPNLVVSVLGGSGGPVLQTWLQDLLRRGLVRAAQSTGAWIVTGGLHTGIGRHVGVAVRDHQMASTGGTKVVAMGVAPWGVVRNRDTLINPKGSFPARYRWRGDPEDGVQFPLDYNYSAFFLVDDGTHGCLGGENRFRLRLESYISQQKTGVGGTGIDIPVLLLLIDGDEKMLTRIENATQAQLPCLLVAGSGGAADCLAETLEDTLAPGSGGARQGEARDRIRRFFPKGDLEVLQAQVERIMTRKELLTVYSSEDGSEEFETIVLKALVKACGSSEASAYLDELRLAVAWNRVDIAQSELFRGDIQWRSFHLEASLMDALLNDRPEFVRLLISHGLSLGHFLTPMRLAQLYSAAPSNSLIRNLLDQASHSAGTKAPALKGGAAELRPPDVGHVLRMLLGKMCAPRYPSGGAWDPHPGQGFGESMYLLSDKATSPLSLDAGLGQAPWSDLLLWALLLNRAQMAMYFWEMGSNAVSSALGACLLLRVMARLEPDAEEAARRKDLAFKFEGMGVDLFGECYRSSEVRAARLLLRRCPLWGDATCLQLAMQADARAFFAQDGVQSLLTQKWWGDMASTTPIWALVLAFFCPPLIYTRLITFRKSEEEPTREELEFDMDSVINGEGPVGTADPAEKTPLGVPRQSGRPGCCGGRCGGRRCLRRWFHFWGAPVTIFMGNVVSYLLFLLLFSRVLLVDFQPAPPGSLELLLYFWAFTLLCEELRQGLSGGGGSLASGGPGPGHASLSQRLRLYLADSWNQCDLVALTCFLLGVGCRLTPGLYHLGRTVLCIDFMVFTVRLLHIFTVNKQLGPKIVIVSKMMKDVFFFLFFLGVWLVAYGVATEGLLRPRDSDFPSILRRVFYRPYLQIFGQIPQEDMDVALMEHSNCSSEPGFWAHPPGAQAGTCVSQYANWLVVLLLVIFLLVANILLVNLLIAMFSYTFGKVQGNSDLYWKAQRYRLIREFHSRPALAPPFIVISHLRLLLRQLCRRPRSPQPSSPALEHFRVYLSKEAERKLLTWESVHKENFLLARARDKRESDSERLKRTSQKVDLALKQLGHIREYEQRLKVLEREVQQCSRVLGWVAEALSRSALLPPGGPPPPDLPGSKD

For the compound `NCCN(Cc1cccc(Cl)c1F)C1CC1` [Compound 120, N1-(3-chloro-2-fluorobenzyl)-N1-cyclopropylethane-1,2-diamine hydrochloride], the “cell survival (%) after glutamate/NMDA treatment” value in assay [1] is listed as “superior protection over compound P401; also recorded: improves cell survival after glutamate/NMDA treatment”. In addition, the “Biological Activity Rating” value in assay [2] (first subset, 10 μM) was “A+++ (With a protection index between 5.0 to 7.0, provides a comparable protection to compound P401 (10 μM) at 0.3 μM.)”. In addition, at NMDAR/TRPM4 complex, the “disruption of NMDAR/TRPM4 complex” value was “the NMDAR/TRPM4 complex was disrupted; also recorded: disrupts the NMDAR/TRPM4 complex”.

With `CCN(CCN)Cc1cccc(Cl)c1` [Compound P401, (2-aminoethyl)[(3-chlorophenyl)methyl]ethylamine, reference compound], the “protection (cell survival after glutamate/NMDA treatment)” value in assay [2] (10 μM, primary cultured neurons, FIG. 2) is recorded as around 60%. Moreover, the protection index in assay [2] (at 10 μM, scale 0.0 to 10.0, vehicle (DMSO) = 0.0) is on record as 6.0. The “protection against H2O2 insult (cell survival)” value with Primary neurons was “better protection against H2O2 insult compared to FDA-approved ALS drug Riluzole and Edaravone; also recorded: better protection against H2O2 insult than the FDA-approved ALS drug Riluzole and Edaravone”.

For `CC(c1cccc(Cl)c1F)N(CCN)C1CC1` (centres unmarked) [Compound 220, N1-(1-(3-chloro-2-fluorophenyl)ethyl)-N1-cyclopropylethane-1,2-diamine hydrochloride], in assay [2] (second subset, 10 μM, hydrochloride), the “Biological Activity Rating” value is reported as “A++++ (With a protection index between 5.0 to 7.0, provides a comparable protection to compound P401 (10 μM) at 0.1 μM.)”. The “protection against H2O2 insult (cell survival)” value in the assay on Primary neurons (hydrochloride) is listed as “better protection against H2O2 insult compared to P401 at 10 μM; also recorded: even better protection than the prior art compound P401”.
